Experimental data published in patent US20020106705A1, “Detection method for monitoring beta tubulin isotype specific modification” (Tularik Inc., priority 1999, published 2002).

Key:
[1] = tested on: β-tubulin in white blood cells; assay: Western blot of white blood cells from rats after compound 1 infusion; format: in vivo, rat; settings: 3 h infusion of compound 1 sodium salt, 20 mg/kg
Method: (§1) White blood cells (“WBC”) were isolated from blood samples (5 ml) taken immediately after a 3 h infusion of compound 1 sodium salt from rats or a human patient treated at 20 mg/kg and 220 mg/m2, respectively, as follows. The samples were mixed with 5 ml of PBS and layered on a Ficoll cushion (10 ml, “Lymphoprep” (density is ˜1.077 and osmolality 280 mOsm, Gibco/BRL). After centrifugation (1000 rpm, 30 min (Sorvall RC3C centrifuge)) at room temperature WBC were isolated from the cushion and the sample was diluted 1:5 with PBS. After centrifugation (2000 rpm for 10 min) the liquid was discarded and the cell pellet was resuspended in 1 ml of PBS. The solution was transferred to an Eppendorf tube and the cells were collected by centrifugation (3000 rpm, 5 min). After the supernatant was discarded the cell pellet was stored at −80° C. or processed as follows. Rat WBC-pellet was resuspended in 15 μl of IEF-buffer and mixed with 15 μl of 2× SDS sample buffer. The human sample was mixed immediately with an equal volume (10 μl) of SDS sample buffer. Protein samples ([…], human; 2 μl, rat) were analyzed by SDS-PAGE and subjected to western blot analyzes as outlined above.

[2] = tested on: β-tubulin isotypes; settings: cited from earlier work
[3] = tested on: cellular tubulin; settings: cited from earlier work
[4] = tested on: β-tubulin in white blood cells; assay: Western blot of white blood cells from a human patient after compound 1 infusion; format: in vivo
Method: as §1
As a standard 10 μg of purified brain tubulin was mixed with […] of BRB80 buffer and incubated with 10 μl of ^3H-compound 1 (10 μCi) in a 500 μl reaction at […] for 2 h. […]

In the case of `COc1ccc(NS(=O)(=O)c2c(F)c(F)c(F)c(F)c2F)cc1F` [compound 1, 2-fluoro-1-methoxy-4-pentafluorophenylsulfonamidobenzene], the “β-tubulin modification in white blood cells (western blot with 2C1H7)” value [1] is listed as “a protein consistent of the size of β-tubulin was visible”, the “modification of other cellular proteins” value [2] is listed as “no other cellular proteins are modified” and the “covalent modification of β-tubulin isotypes” value ([2]; five known β-tubulin isotypes, β1, β2, β4 have Cys239, β3 and β5 have serine) is listed as “binding is restricted to those β-tubulin isotypes that have a cysteine residue at amino acid position 239 in β-tubulin”. The “binding to cellular tubulin” value [3] was “time- and concentration-dependent”, the “amount of loaded tubulin modified by compound 1” value ([4]; human WBC sample, compared with 3H-compound 1-β-tubulin standard curve) was about 7.5 fmol and the “β-tubulin modification in white blood cells (western blot with 2C1H7)” value ([4]; human patient, 3 h infusion of compound 1 sodium salt, 220 mg/m2) was “a protein consistent of the size of β-tubulin was visible”.
